{"source": "patent US10522239B2", "about": "“Small molecule binding pockets in nucleic acids” (Nymirum, Inc., priority 2012, dated 2019)", "target": "pre-miR-122 loop", "experiment": "NMR titration binding screen against pre-miR-122 loop", "set-up": "species or system human", "settings": "NMR titration experiments", "text": "The apical loop sequence of human pre-miR 122 RNA sequence was investigated as an example. Two base pairs at the 5′- and 3′-ends of the sequence were modified from the native pre-miR 122 sequence in order to stabilize the 24-mer stem loop construct for NMR studies (5′-[…]-3′) (SEQ ID NO: 2).\nBecause pre-miR-122 is cleaved near the helix-apical loop interface, the apical loop was targeted to identify binding pockets. […] Given the size and plasticity of the loop, it was hypothesized that the loop could assume different conformations to bind small molecules. To identify small molecule binding pockets, each of the 60 small molecules in Nymirum's small molecule library was screened against the pre-miR-122 loop using NMR titration experiments. Two small molecules, NC1404 (9-aminoacridine) and NC1444 (L-arg-p-nitroanilide), were identified to bind with Kds of 71.7±9.0 μM and 17.6±3.25 μM respectively (FIGS. 12A and 12B). Using the same procedure detailed for A-site, bound-state chemical shifts for NC1404 and NC1444 were measured, used to solve a bound-state pre-miR-122 structure and a binding pocket for each compound was identified (FIGS. 12A and 12B). […]"}
{"smiles": "Nc1c2ccccc2nc2ccccc12", "note": "[NC1404, 9-aminoacridine]", "values": [{"measurement": "Kd", "value": "71.7 ± 9", "unit": "µM"}]}
{"smiles": "N=C(N)NCCC[C@H](N)C(=O)Nc1ccc([N+](=O)[O-])cc1", "note": "[NC1444, L-arg-p-nitroanilide]", "values": [{"measurement": "Kd", "value": "17.6 ± 3.25", "unit": "µM"}]}
